The values that follow come from patent publication EP2475361B1, “N-SUBSTITUTED BENZENEPROPANAMIDES FOR USE IN THE TREATMENT OF PAIN AND INFLAMMATION” (Novaremed Ltd., priority 2009, dated 2011).

Test [1] relates to Balb/c mice. Briefly: Formalin test. Format: in vivo. To be noted: formalin 1% intraplantar 3 h or 4 h after treatment; 0.2, 1, 2.5 mg/kg i.p.; paw licking 0-5 min and 20-30 min; Figures 12a-12e. The procedure: Formalin test. The method used was similar to that described by Hunscaar and Hole (1987) "The formalin test in mice: dissociation between inflammatory and non-inflammatory pain," Pain 30, pp.[…].
Five animals are used in each group and two to three hours after oral administration of the conjugates, 40 µl or 20 µl (rats or mice, respectively) of a 1% formalin (in 0.9% saline) solution is injected subcutaneously into the dorsal surface hind paw. The formalin induced typical flinching behaviour of the injected paw was counted. The animals were returned to a glass chamber and the total time spent by the animal licking or biting the injected paw was measured. Formalin induced pain behaviour is biphasic. The duration of paw licking was determined during the following two time periods: 0-5 min (first-neurogenic phase) and 20-30 min (second-inflammatory phase) after formalin injection. Part a. Male mice (Balb/c mice, 27 weeks old, not naïve), were divided in 4 groups (5 mice per group) and treated (0 min, i.p.) with the following formulations, respectively: […]
Part b. Male mice (Balb/c mice, 27 weeks old, not naive), were divided in 4 groups (5 mice in groups) and treated (0 min, i.p.) with the following formulations, respectively: […]

The subject of test [2] is Balb/c mice. Briefly: Hot-Plate Test (antinociceptive effect, sub-chronic administration). To be noted: hot plate 52°C; 0.1 or 5 mg/Kg po daily for 16 days; tested on days 1, 8 and 15; compared with Diclofenac 10 mg/kg. Format: in vivo. An excerpt:
The objective of the study was to assess antinociceptive activity of tested items in the hot plate tests in mice, when administered sub-chronically. Measuring paw licking or jumping response time elapses following placement on heated surface (hot plate) was used to determine potential antinociceptive effect in mice.
A total of 42 Balb/c mice (12weeks old) were utilized. The mice were approximately 25g males at study initiation. The minimum and maximum weights of the group were within a range of ±10 % of group mean weight.
Compounds 2 and 3 were tested and compared with Diclofenac® (Perigo). DMSO solutions were used. Six groups of mice (each having n=7 or n=8 mice) were tested, the last group receiving Diclofenac®.
All groups received the drugs daily po for 16 days. Hot plate experiments were performed on days; 1, 8 and 15.
The hot plate is maintained thermostatically at a temperature of 52°C. One hour before the administration of the drugs, mice are tested in the hot plate. At time 0 the mice are administered with the test compound and the response to the hot plate is measured again at different times: 60,120,180, 240, 300 and 360 min.
Results are expressed as: Delta from maximum response [baseline vs. maximum response]; Absolute measures over time; and Accumulated time.
(In hot-plate and tail-flick tests a longer latency is read as antinociception.)

Structures are written as SMILES.

`CC(O)COCC(Cc1ccc(O)cc1)NC(=O)CCc1ccccc1` (stereo not drawn) [Compound 2]: the anti-inflammatory properties result with Balb/c mice [1] is reported as “anti-inflammatory properties”. The “pain relief (antinociceptive effect)” value in the test on Balb/c mice [2] is “effective as pain relievers”.

With `O=C(CCc1ccccc1)NC(COCCO)Cc1ccc(O)cc1` (stereo not drawn) [Compound 3], the “pain relief (antinociceptive effect)” value in the test on Balb/c mice [2] is “effective as pain relievers”.
